One data set has as its system SK-OV-3. As to the kind of experiment: Cytotoxicity against human SKOV3 cells assessed as inhibition of cell proliferation after 4 days by crystal violet assay. The data set is classed as functional, cell-based. To be noted: SK-OV-3, 96 h.
For data set [1], the system named is MCF7. Briefly: Antitumor activity against human MCF7 tumor spheroids assessed as tumor growth inhibition at 200 uM after 14 days by inverted microscopic analysis relative to control. It counts as functional. To be noted: MCF7, 336 h, read-out: TGI.
Data set [2] has as its system MCF7. As to the kind of experiment: Antitumor activity against human MCF7 tumor spheroids assessed as tumor growth inhibition at 100 uM after 14 days by inverted microscopic analysis relative to control. It counts as functional. To be noted: MCF7, 336 h, read-out: TGI.
The subject of data set [3] is MCF7. As to the kind of experiment: Cytotoxicity against human MCF7 cells assessed as inhibition of cell proliferation after 4 days by crystal violet assay. The data set is classed as functional, cell-based. The note with it: MCF7, 96 h.
Data set [4] can be described thus: Induction of H2S release in 10% PBS:MeCN solution at 1 mM incubated at 22 degC in dark condition measured at 72 hrs by 2, 6-dansyl azide probed-based fluorescence assay. The data set is classed as physicochemical. The note with it: buffer, 1000 µM.
Data set [5] is described as follows: Therapeutic index, ratio of IC50 for human WI38 cells to IC50 for human SKOV3 cells. The note with it: WI38 cells and SKOV3 cells.
Data set [6] in a line: Toxicity in human AC10 cells assessed as inhibition of cell proliferation after 24 hrs by CellTiter-Glo cell viability assay. The data set is classed as cell-based. (In ATP-based viability assays light output follows the ATP content of the culture.)
The subject of data set [7] is MCF7. Briefly: Antitumor activity against human MCF7 tumor spheroids assessed as tumor growth inhibition at 400 uM after 14 days by inverted microscopic analysis relative to control. To be noted: MCF7, 336 h, read-out: TGI. The data set is classed as functional.
Data set [8] is described as follows: Toxicity in human WI38 cells assessed as inhibition of cell proliferation after 4 days by crystal violet assay.
The nature of data set [9]: Toxicity in transforming growth factor alpha transgenic mouse hepatocytes assessed as inhibition of cell proliferation after 24 hrs by CellTiter-Glo cell viability assay. The data set is classed as cell-based, Hepatocyte.
Data set [10] can be described thus: Induction of H2S release in 10% PBS:MeCN solution at 100 uM incubated at 37 degC in dark condition measured at 72 hrs by 2, 6-dansyl azide probed-based fluorescence assay. The note with it: buffer. The data set is classed as physicochemical.
The test system of data set [11] is MCF7. As to the kind of experiment: Antitumor activity against human MCF7 tumor spheroids assessed as tumor growth inhibition at 800 uM after 14 days by inverted microscopic analysis relative to control. It counts as functional. To be noted: MCF7, 336 h, read-out: TGI.

pIC50: −log10 of the molar value. A value given as a limit tells only on which side of the number the result lay.

For orientation: pIC50 means the IC50 on a negative log10 scale, so that one unit is a factor of ten. The term IC50 denotes the concentration at which inhibition is half-maximal. Consider `S=P1(c2ccccc2)Nc2ccccc2O1` (configuration not stated), for which the figures for the negative logarithm of the IC50 (pIC50) in the data set on SK-OV-3 and with MCF7 [3] were 5.21 and 5.24, respectively. In the data set on MCF7 [1], the inhibition of growth at 200 µM is 75.3%. Also, the inhibition of growth at 100 µM with MCF7 [2] was determined as 69.7%. Moreover, the Activity in data set [4] came out at 150 µM; in data set [10], 77.6 µM. The selectivity ratio in [5] was determined as 8.2. Moreover, the 50% inhibitory concentration (IC50) at 24 h in data set [6] was determined as 98 µM; in data set [9], 26.3 µM. For the same molecule, the inhibition of growth at 400 µM with MCF7 [7] was 83.7%. In data set [8], the IC50 at 4 days was greater than 50 µM. The inhibition of growth at 800 µM with MCF7 [11] stood at 91%.

The values above are taken from ChEMBL document CHEMBL3603746, “Discovery of New H2S Releasing Phosphordithioates and 2,3-Dihydro-2-phenyl-2-sulfanylenebenzo[d][1,3,2]oxazaphospholes with Improved Antiproliferative Activity” (J Med Chem, 2015).
